Test results taken from paper PMC10612060 (Viruses, 2023).
Where “and” joins values, the source holds several entries; their conditions need not be identical. Equal values may be shown once. Read-outs that look alike come from different tables or passages of the source.

Tests used:
[1] = test system: SARS-CoV-2 gamma strain hCoV-19/Japan/TY7-501/2021; format: in vivo, BALB/c mice
[2] = in vivo; parameters: species or system mice; conditions: mouse plasma, simulated; for Cmax / AUC(0-t): BALB/c, mouse, in vivo, po; for AUC(0-t): read-out: AUC0–48h
[3] = Adverse effects in rodents at exposure of the maximum dose; format: in vivo; conditions: same exposure conditions as the maximum dose administered to mice
[4] = test system: SARS-CoV-2 gamma strain (hCoV-19/Japan/TY7-501/2021); conditions: cited from earlier work; for Viral titer in lungs: twice daily for 2 d, Day 2, individual mice 1-5, previously reported ref 12
[5] = test system: SARS-CoV-2 gamma strain (hCoV-19/Japan/TY7-501/2021); parameters: method as in earlier work; conditions: extrapolated to 100% mouse serum, cited from earlier work
[6] = 8 mg/kg, thrice daily for 2 d, 8 mg/kg oral
[7] = 8 mg/kg, twice daily for 2 d, 8 mg/kg oral
[8] = 16 mg/kg, once daily for 2 d, 16 mg/kg oral
[9] = 16 mg/kg, thrice daily for 2 d, 16 mg/kg oral
[10] = 16 mg/kg, twice daily for 2 d, 16 mg/kg oral
[11] = 32 mg/kg, once daily for 2 d, 32 mg/kg oral
[12] = 32 mg/kg, one shot, 32 mg/kg oral
[13] = 32 mg/kg, thrice daily for 2 d, 32 mg/kg oral
[14] = 32 mg/kg, twice daily for 2 d, 32 mg/kg oral
[15] = 64 mg/kg, once daily for 2 d, 64 mg/kg oral
[16] = 64 mg/kg, one shot, 64 mg/kg oral
[17] = 64 mg/kg, thrice daily for 2 d, 64 mg/kg oral
[18] = 64 mg/kg, twice daily for 2 d, 64 mg/kg oral

Question: Which results are given for `Cn1cnc(Cn2c(=O)[nH]/c(=N\c3cc4cn(C)nc4cc3Cl)n(Cc3cc(F)c(F)cc3F)c2=O)n1` [ensitrelvir, ensitrelvir fumaric acid]?
Answer: Antiviral activity when administration delayed 72 h post-infection ([1]; given during the viral clearance phase): dose-dependent antiviral activity; Dose that significantly lowered lung viral titers compared to vehicle ([1]; mouse, in vivo): ≥ 8 mg/kg; Cmax [2, 6]: 21500 ng/mL; AUC(0-t) [2, 6]: 657 µg·h/mL; Cmax [2, 7]: 18100 ng/mL; AUC(0-t) [2, 7]: 446 µg·h/mL; Cmax [2, 8]: 38800 ng/mL; AUC(0-t) [2, 8]: 475 µg·h/mL; Cmax [2, 9]: 47600 ng/mL; AUC(0-t) [2, 9]: 1390 µg·h/mL; Cmax [2, 10]: 41300 ng/mL; AUC(0-t) [2, 10]: 941 µg·h/mL; Cmax [2, 11]: 72500 ng/mL; AUC(0-t) [2, 11]: 1020 µg·h/mL; Cmax [2, 12]: 72400 ng/mL; AUC(0-t) [2, 12]: 510 µg·h/mL; Cmax [2, 13]: 96000 ng/mL; AUC(0-t) [2, 13]: 2960 µg·h/mL; Cmax [2, 14]: 79700 ng/mL; AUC(0-t) [2, 14]: 2010 µg·h/mL; Cmax [2, 15]: 160000 ng/mL; AUC(0-t) [2, 15]: 2670 µg·h/mL; Cmax [2, 16]: 159000 ng/mL; AUC(0-t) [2, 16]: 1340 µg·h/mL; Cmax [2, 17]: 232000 ng/mL; AUC(0-t) [2, 17]: 7650 µg·h/mL; Cmax [2, 18]: 188000 ng/mL; AUC(0-t) [2, 18]: 5230 µg·h/mL; C48h ([2]; once daily for 2 d, 16 mg/kg oral): 75.8 ng/mL; C48h ([2]; once daily for 2 d, 32 mg/kg oral): 210 ng/mL; C48h ([2]; once daily for 2 d, 64 mg/kg oral): 1290 ng/mL; C48h ([2]; one shot, 32 mg/kg oral): 0.0591 ng/mL; C48h ([2]; one shot, 64 mg/kg oral): 1.11 ng/mL; C48h ([2]; thrice daily for 2 d, 8 mg/kg oral): 5740 ng/mL; C48h ([2]; thrice daily for 2 d, 16 mg/kg oral): 11,600 ng/mL; C48h ([2]; thrice daily for 2 d, 32 mg/kg oral): 30,000 ng/mL; C48h ([2]; thrice daily for 2 d, 64 mg/kg oral): 88,300 ng/mL; C48h ([2]; twice daily for 2 d, 8 mg/kg oral): 1840 ng/mL; C48h ([2]; twice daily for 2 d, 16 mg/kg oral): 3760 ng/mL; C48h ([2]; twice daily for 2 d, 32 mg/kg oral): 11,400 ng/mL; C48h ([2]; twice daily for 2 d, 64 mg/kg oral): 42,000 ng/mL; Adverse effects [3]: No adverse effects were observed; Viral titer in lungs ([4]; 8 mg/kg oral from 24 h post-infection, 8 mg/kg): 5.80 log10 TCID50/mL (2×) and 5.97 log10 TCID50/mL (2×) and 5.63 log10 TCID50/mL; Viral titer in lungs ([4]; 16 mg/kg oral from 24 h post-infection, 16 mg/kg): 5.80 log10 TCID50/mL and 5.63 log10 TCID50/mL and 5.53 log10 TCID50/mL (2×) and 4.97 log10 TCID50/mL; Viral titer in lungs ([4]; 32 mg/kg oral from 24 h post-infection, 32 mg/kg): 4.30 log10 TCID50/mL and 3.80 log10 TCID50/mL and 4.63 log10 TCID50/mL (3×); Viral titer in lungs ([4]; 64 mg/kg oral from 24 h post-infection, 64 mg/kg): 2.80 log10 TCID50/mL and 3.80 log10 TCID50/mL (2×) and 3.63 log10 TCID50/mL and 3.30 log10 TCID50/mL; Mouse PA-EC50 [5]: 2.09 µg/mL; EC50 ([5]; read-out: Mouse PA-EC50): 3.93 µM

Question: With `CC(C)(C)[C@H](NC(=O)C(F)(F)F)C(=O)N1C[C@H]2[C@@H]([C@H]1C(=O)N[C@H](C#N)C[C@@H]1CCNC1=O)C2(C)C` [nirmatrelvir, reference compound] as the molecule, how does the “Antiviral activity in this model” value ([4]; delayed-treatment mouse model) read?
Answer: demonstrates antiviral activity
